Results on one molecule are retold here after patent US20120258944A1, “ANTIOXIDANTS FOR USE IN THERAPY” (priority 2009, published 2012).

Each structure is given as a SMILES string.

Data set [1] in a line: ABTS radical cation assay (TEAC) in aqueous PBS buffer. The settings on record: 6.08 micro-M. The protocol:
In order to investigate its aqueous phase performance, we thought that it would be interesting to determine its Trolox Equivalent Antioxidant Capacity (TEAC) (Free Rad. Biol. Med. 1999, 26, 1231-1237) which has been used to quantify the antioxidant activity of biological fluids, extracts and pure compounds. The TEAC value is defined as the concentration of Trolox which has an equivalent antioxidant potential as a 1 mM solution of the compound under investigation (Free Rad. Biol. Med. 1996, 20, 933-956).
A 2,2′-azinobis(3-ethylbenzothiazoline-6 sulphonic acid radical cation (ABTS•+) assay was used to determine relative TEAC values. To a preformed solution of ABTS•+ in PBS buffer, pH 7.4, with an absorbance slightly above 0.7 were added various amounts (3-30 microM) of organoselenium compound 1, Trolox, sodium ascorbate and N-acetylcysteine. The absorbance at 734 inn was recorded immediately after mixing and then every minute for the next 8 minutes.
Antioxidant activity as determined by the capacity of the antioxidant to decolorize the ABTS^+ radical cation was determined essentially as described in the literature (Acc. Chem. Res. 1986, 19, 194-201). […] In a typical experiment, the antioxidant (1.52 micro-L of a 3.00 mM solution in MeOH or water; final concentration=6.08 micro-M) was syringed into 0.750 mL of the ABTS^+ radical cation solution. After initial mixing, the absorbance was recorded every minute for the next eight minutes.

Data set [2] has as its system human umbilical vein endothelial cells (HUVEC). As to the kind of experiment: XTT in vitro toxicology test in human umbilical vein endothelial cells. The format is cell-based. The settings on record: human. The protocol:
As a negative control, cells incubated with medium containing 0.5% DMSO (corresponding to the highest DMSO concentration above) was used. As a positive control, cells were incubated in the presence of 20% EtOH.
After the incubation with the compounds, the wells were washed with PBS to remove substances which could interfere with the assay. 40 μl of fresh medium 200 without phenol red was added together with 10 μl XTT substance (according to the manufacturer's instructions). The plates were incubated for 8 hrs and the colour development was monitored by measuring the absorbance at 450 nm.
After incubation, the number of viable cells was assessed by observing the amount of metabolized XTT (2,3-bis[2-methoxy-4-nitro-5-sulphophenyl]-2H-tetrazolium-5-carboxyanilide inner salt).
(Formazan colour is commonly taken as a measure of viable cells.)

Data set [3] concerns THP-1 cells. Briefly: Chemiluminescence (Diogenes), ROS production in PMA stimulated THP-1 cells. The format is cell-based, human. From the text:
(§1) We investigated the capacity of the material to quench ROS produced by freshly isolated human neutrophils or THP-1 cells (human acute monocytic leukemia cell line) stimulated with PMA (Phorbol Myristate Acetate). The antioxidant capacity of selenide 1 was again compared to those of Trolox, a water soluble derivative of vitamin E, which is commonly used in biological and biochemical applications to reduce oxidative stress or damage.
The generation of oxygen free radicals over time from macrophages (THP-1) was monitored for 180 minutes in 96-well white optiplates (Greiner) using a using a TECAN reader and Diogenes chemiluminescence kit (National Diagnostics). Approximately 200 000 THP-1 cells diluted in HBSS containing different concentrations of the antioxidants 1 and Trolox were added per well to a 96 well plate together with the Diogenes reagent 20 v/% (following the manufacturers recommendations) and 40 micro-M Phorbol Myristate Acetate (PMA). Luminescence intensity was read every 6 min. The measurements were commonly performed on quadruplicate samples

Data set [4] relates to kidney slice. Briefly: Organ model TBARS experiment (TBA-MDA assay) in kidney slices.
Data set [5] relates to human neutrophils. Briefly: Luminol enhanced chemiluminescence, total ROS production in neutrophils. The format is cell-based.
From the text: as §1
Neutrophils were isolated from heparinized blood of apparently healthy blood donors (Academic Hospital, Uppsala, Sweden) following a routine dextran sedimentation method essentially as described by Halansson and Venge (Scandinavian Journal of Immunology 1980, 11, 271-282). To each of three test tubes containing 5 ml heparinized blood, dextran (T500, Pharmacia, Uppsala, Sweden) was added (final concentration 1%) and the sedimentation was allowed to proceed for 30 min at room temperature. […] Finally, the pellet was resuspended in Gey's buffer and the average content of neutrophils (approximately 90%) was calculated using Türks staining and hemocytometer method. […]
The generation of oxygen free radicals over time from neutrophils was monitored for 40 minutes in 24 well white optiplates (Greiner) using a Wallac Victor […] in the luminescence mode. […]

Turning to `CC1Cc2cc(O)ccc2[Se]1` (stereo not drawn) [Compound 1], the TEAC value in data set [1] (PBS buffer pH 7.4, after 5 min) is recorded as 1.6. The “number of ABTS radicals quenched by each molecule of the antioxidant” value in data set [1] (PBS buffer pH 7.4, versus reference antioxidants) is “clearly outperformed both sodium ascorbate and Trolox”. In data set [2], the “relative toxicity among the compounds” value was “far less toxic than compounds 2 and 3”. Moreover, the toxic concentration amounted to 500 µM in data set [2] (24 h), 500 µM in data set [2] (48 h) and 200 µM in data set [2] (72 h). Also, in data set [3] (1, 10 and 20 micro-M, FIG. 24), the “effect on ROS production in THP-1” value was “clear, dose dependent, quenching/inhibiting effect”. Further, in data set [3] (20 micro-M each), the “quenching of ROS from THP-1 compared with Trolox” value is recorded as “considerably more effective than Trolox”. The “potency as inhibitor of TBARS production compared with references” value in data set [4] was “more potent inhibitors of TBARS production than Trolox and N-acetylcysteine”. In addition, in data set [4] (re-oxygenation after Argon), the “concentration able to inhibit 50% of the TBARS formation in the control incubation” value is reported as “sub-micromolar”. Besides, in data set [5] (20, 40, 60 micro-M, FIG. 22), the “effect on ROS production in neutrophils” value was “clear, dose dependent, quenching/inhibiting effect”. Also, the “quenching of ROS from neutrophils compared with Trolox” value in data set [5] (20 micro-M each) was “considerably more effective than Trolox”.
